# Reference: patent US8653057B1, “Prophylactic perioperative testosterone supplementation for protection of and recovery of function” (The Regents of the University of California, priority 2010, dated 2014)
# Key:
# [1] = cited from earlier work
# [2] = testosterone supplementation of low-testosterone patients around radical prostatectomy (anecdotal results); assay type: in vivo, men
# Text: Therefore men with either low or low normal testosterone levels can be treated with testosterone (or other androgens such as synthetic steroids structurally related to testosterone) to prevent, mitigate or treat erectile dysfunction associated with RARP/RP. A large number of testosterone replacement drugs such as Androgel can easily be given to appropriate patients prior to or even following surgery. The amount of testosterone administered is sufficient to raise the free testosterone level into the high free testosterone range as defined above (generally greater than about 9 ng/dl). Where other androgens are used, the equivalent effectiveness of each different molecule in terms of testosterone is generally known. Sufficient androgen is given so that the effectiveness of the circulating level of androgen plus testosterone falls within the high free testosterone range. As will be clear to those of ordinary skill in the art, the testosterone or other androgen is administered at the usual amount and frequency. Circulating testosterone levels are measured at appropriate intervals (i.e., weekly or monthly) and the dosage adjusted if necessary.
# We believe that preoperative supplementation will produce even more dramatic improvements. […]
smiles,measurement,setting,value
C[C@]12CC[C@H]3[C@@H](CCC4=CC(=O)CC[C@@]43C)[C@@H]1CC[C@@H]2O [testosterone],PSA values after testosterone replacement therapy,[1],have not been shown to increase significantly
same,prostate specific antigen (PSA),"[1]; testosterone replacement after radical prostatectomy, small studies (7, 10 and 57 men), 13 and 19 months",without increasing prostate specific antigen (PSA)
same,recovery (of potency/sexual function) after prostate surgery,"[2]; supplementing low testosterone levels, anecdotal results",more rapid and more complete recovery
same,recurrence of the cancer,"[2]; testosterone supplementation, limited data",does not lead to recurrence of the cancer
